# Measured values reported in publication PMC12466706 (Antioxidants, 2025).
# Like-named read-outs stand apart in the source and are kept apart here.
# Experiments:
# YFV = experiment: microbe, parasite or virus in culture; assay type: cell-based, Yellow fever virus (YFV-17D); settings: read-out: EC50 against YFV replication
# DENV [1] = experiment: microbe, parasite or virus in culture; assay type: cell-based, Dengue virus (DENV-2 16681 strain); settings: for EC50: read-out: Replication EC50
# [2] = test system: pBR322 supercoiled plasmid DNA; assay type: biochemical, Escherichia coli; further: test concentration or dose not given here
# DENV [3] = experiment: microbe, parasite or virus in culture; assay type: cell-based, Dengue virus (DENV-2 16681 strain)
# DENV [4] = experiment: microbe, parasite or virus in culture; assay type: cell-based, Dengue virus (DENV-2 16681 strain); remark: listed apart in the source
# [5] = not given; remark: listed apart in the source
# in vitro = settings: human
# Huh7 cells = settings: human
# [6] = Dengue virus, Huh-7, 72 h, read-out: Infectivity EC50
# [7] = Dengue virus, Huh-7, read-out: Infectivity EC50
# [8] = Dengue virus, 72 h, read-out: Entry + Replicaion EC50
# [9] = Dengue virus, Huh-7, 72 h, read-out: Entry + Replication EC50
SMILES,ABTS radical scavenging activity IC50,"EC50 (YFV; Yellow fever virus, 72 h)","EC50 (DENV [1]; Dengue virus, Huh-7, 72 h)",inhibition of DNA strand breakage [2],EC50 (DENV [3]; [6]),EC50 (DENV [3]; [7]),EC50 (DENV [4]; [8]),EC50 (DENV [4]; [9]),DPPH scavenging activity IC50 [5],EC50 (DENV [1]; Dengue virus),EC50 (YFV),Replication EC50 (DENV [1]),EC50 (DENV [1]),Infectivity EC50 (DENV [3]),EC50 (DENV [3]; read-out: Infectivity EC50),Entry + Replicaion EC50 (DENV [4]),EC50 (DENV [4]; read-out: Entry + Replication EC50),CC50 (in vitro),CC50 (Huh7 cells)
"O=C(O)/C=C/c1ccc(O)c(O)c1 [Caffeic acid, caffeic acid]",1.28 µg/mL,> 100 µM,35.9 ± 1.88 µM,98.98%,51.5 ± 1.19 µM,4.63 µg/mL,> 4.5 µg/mL,> 100 µM,6.37 µg/mL,–,–,–,–,–,–,–,–,–,–
"O=C(O)/C=C/c1ccc(O)cc1 [Coumaric acid, coumaric acid]",4.00 µg/mL,154 ± 29.8 µM,> 100 µM,89.85%,91.64 ± 0.4 µM,15 µg/mL,7.87 µg/mL,48 ± 2.43 µM,21.17 µg/mL,> 16.4 µg/mL,–,–,–,–,–,–,–,–,–
"COc1cc(/C=C/C(=O)O)ccc1O [Ferulic acid, ferulic acid]",2.51 µg/mL,–,–,94.17%,–,–,–,–,10.14 µg/mL,–,> 100 µM,> 19.41 µg/mL,> 100 µM,> 19.41 µg/mL,> 100 µM,> 19.41 µg/mL,> 100 µM,–,–
"O=c1c(O)c(-c2ccc(O)cc2)oc2cc(O)cc(O)c12 [Kaempferol, kaempferol]",1.84 µg/mL,> 50 µM,31.5 ± 6.39 µM,97.34%,3.55 ± 0.07 µM,0.25 µg/mL,2.53 µg/mL,35.5 ± 4.09 µM,7.40 µg/mL,–,–,–,–,–,–,–,–,90.4 µM,> 6.466 µg/mL
"O=c1cc(-c2ccc(O)c(O)c2)oc2cc(O)cc(O)c12 [Luteolin, luteolin]",2.20 µg/mL,> 100 µM,107 ± 1.82 µM,95.87%,> 100 µM,> 28.6 µg/mL,20.8 µg/mL,72.7 ± 7.76 µM,9.48 µg/mL,30.7 µg/mL,–,–,–,–,–,–,–,–,–
"O=C1C[C@@H](c2ccc(O)cc2)Oc2cc(O)cc(O)c21 [Naringenin, naringenin]",3.37 µg/mL,102 ± 34.4 µM,> 100 µM,92.03%,> 100 µM,> 27.2 µg/mL,28.5 µg/mL,> 100 µM,17.45 µg/mL,> 27.2 µg/mL,–,–,–,–,–,–,–,–,–
"O=c1c(O)c(-c2ccc(O)c(O)c2)oc2cc(O)cc(O)c12 [Quercetin, quercetin]",1.93 µg/mL,> 100 µM,58.5 ± 7.08 µM,96.52%,104 ± 1.49 µM,31.4 µg/mL,32.1 µg/mL,109 ± 17.6 µM,8.05 µg/mL,17.7 µg/mL,–,–,–,–,–,–,–,–,–
"O=C(/C=C/c1ccc(O)c(O)c1)O[C@H](Cc1ccc(O)c(O)c1)C(=O)O [Rosmarinic acid, rosmarinic acid]",3.05 µg/mL,98 ± 21 µM,76.2 ± 7.92 µM,93.12%,37.1 ± 0.94 µM,13.4 µg/mL,25.6 µg/mL,70.9 ± 9.1 µM,12.28 µg/mL,27.4 µg/mL,–,–,–,–,–,–,–,> 500 µM,–
"C[C@@H]1O[C@@H](OC[C@H]2O[C@@H](Oc3c(-c4ccc(O)c(O)c4)oc4cc(O)cc(O)c4c3=O)[C@H](O)[C@@H](O)[C@@H]2O)[C@H](O)[C@H](O)[C@H]1O [Rutin, rutin]",4.54 µg/mL,> 100 µM,> 100 µM,88.60%,> 100 µM,> 61 µg/mL,> 61 µg/mL,> 100 µM,21.86 µg/mL,> 61 µg/mL,–,–,–,–,–,–,–,> 500 µM,–
